In US8129396B2, “2-[1H-benzimidazol-2(3H)-ylidene]-2-(pyrimidin-2-yl)acetamides and 2-[benzothiazol-2(3H)-ylidene]-2-(pyrimidin-2-yl)acetamides as kinase inhibitors” (Telik, Inc., priority 2008, dated 2012):
pIC50: −log10 of the molar value.

Tests used:
Aurora A kinase = target: T1, Aurora A kinase (Homo sapiens, UniProt O14965); assay: Aurora A kinase assay (IMAP fluorescence polarization); assay type: biochemical; details: 10 μM ATP; rounded to 1 significant figure; read-out: Aur-A IC50
T1 construct: purchased Upstate Biotech
T1 sequence (O14965 1-403): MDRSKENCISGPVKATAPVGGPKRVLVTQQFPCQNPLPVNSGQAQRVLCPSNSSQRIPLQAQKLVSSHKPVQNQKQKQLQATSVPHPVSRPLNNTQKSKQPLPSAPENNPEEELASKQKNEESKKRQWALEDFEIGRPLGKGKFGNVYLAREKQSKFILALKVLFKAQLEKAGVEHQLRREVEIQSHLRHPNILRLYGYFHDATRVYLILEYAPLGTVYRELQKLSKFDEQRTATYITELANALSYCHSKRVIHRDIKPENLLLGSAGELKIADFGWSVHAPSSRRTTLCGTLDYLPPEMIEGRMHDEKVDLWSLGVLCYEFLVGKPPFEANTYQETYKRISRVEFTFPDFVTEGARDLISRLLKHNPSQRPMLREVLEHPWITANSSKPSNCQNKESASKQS
From the text: (§1) The cell lines HL60 (human promyelocytic leukemia) and HCT116 (human colon carcinoma) were obtained from the American Type Culture Collection, Manassas, Va., U.S.A., and HUVEC-2 (human umbilical vein endothelial cells) from BD Biosciences, Bedford, Mass., U.S.A. Aurora A kinase was obtained from Upstate Biotech, Billerica, Mass., U.S.A.; Aurora B kinase from BPS Bioscience, San Diego, Calif., U.S.A.; and VEGFR2 kinase from Cell Signaling Technology, Danvers, Mass., U.S.A. The IMAP FP Screening Express kit was obtained from Molecular Devices, Sunnyvale, Calif., U.S.A.; the CellTiter-Glo assay kit from Promega Corporation, Madison, Wis., U.S.A.; and the Cellular DNA Cytometric Analysis Reagent Kit and BrdU labeling and detection kit from Roche Diagnostics Corporation, Indianapolis, Ind., U.S.A. All products were used in accordance with manufacturer's directions. Kinase inhibition assays and the histone phosphorylation (p-H3) assay were conducted in duplicate, and the cytotoxicity and HUVEC proliferation assays were conducted in triplicate, in each case with solvent control.
Aurora A kinase assay: the test compounds were diluted in dimethylsulfoxide (DMSO, eight concentrations with serial 3-fold dilutions) and incubated (final DMSO concentration 2.5%) with Aurora A kinase at room temperature for 5 min in kinase reaction buffer with 1 mM dithiothreitol (IMAP FP Screening Express). The kinase reaction was initiated by adding 100 nM fluorescein labeled PKAtide and 10 μM adenosine triphosphate (ATP), and allowed to continue for 45 min at room temperature, after which it was stopped by adding binding reagent (1:400 dilution in binding buffer A). After 30 min of room temperature incubation with shaking, the fluorescence polarization was measured on a LJL plate reader. Aurora B kinase assay: performed as for the Aurora A kinase assay, but using Aurora B kinase instead of Aurora A kinase.

Aurora B kinase = target: T2, Aurora B kinase (Homo sapiens, UniProt Q96GD4); assay: Aurora B kinase assay (IMAP fluorescence polarization); assay type: biochemical; details: 10 μM ATP; rounded to 1 significant figure; read-out: Aur-B IC50
T2 construct: purchased BPS Bioscience
T2 sequence (Q96GD4 whole entry): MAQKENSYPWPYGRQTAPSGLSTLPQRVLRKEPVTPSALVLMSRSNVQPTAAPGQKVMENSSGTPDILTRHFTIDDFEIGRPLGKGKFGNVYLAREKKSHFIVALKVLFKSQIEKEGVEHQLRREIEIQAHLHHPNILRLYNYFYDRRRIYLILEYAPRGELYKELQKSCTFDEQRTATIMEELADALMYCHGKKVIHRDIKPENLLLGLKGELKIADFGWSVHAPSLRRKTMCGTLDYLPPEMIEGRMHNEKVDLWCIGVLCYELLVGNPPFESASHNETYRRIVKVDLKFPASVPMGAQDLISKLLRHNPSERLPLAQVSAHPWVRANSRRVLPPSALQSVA
From the text: as §1
The kinase reaction was initiated by adding 100 nM fluorescein labeled PKAtide and 10 μM adenosine triphosphate (ATP), and allowed to continue for 45 min at room temperature, after which it was stopped by adding binding reagent (1:400 dilution in binding buffer A). After 30 min of room temperature incubation with shaking, the fluorescence polarization was measured on a LJL plate reader. Aurora B kinase assay: performed as for the Aurora A kinase assay, but using Aurora B kinase instead of Aurora A kinase.

[1] = test system: HUVEC-2 (human umbilical vein endothelial cells); assay: HUVEC VEGF-dependent proliferation assay (BrdU); assay type: cell-based; details: VEGF (25 ng/mL)-dependent proliferation, read-out: HUVEC IC50
From the text: as §1
HUVEC-2 cells were seeded at 10^4 cells/well in a 96-well plate coated with 0.1% gelatin in complete medium. […] The compounds were serially diluted in DMSO, and added to the cells at 0.5% DMSO final concentration. After 2 hr, VEGF (25 ng/mL) was added; and after a further day, 5-bromo-2-deoxyuridine (BrdU, 10 μM) was added to label proliferating cells, and the cells incubated for another day. The plates were then processed using the Roche BrdU labeling and detection kit, and the VEGF-dependent antiproliferative activity of the compounds determined.

VEGFR2 kinase = target: T3, VEGFR2 kinase (Homo sapiens, UniProt P35968); assay: VEGFR2 kinase assay; assay type: biochemical; details: 6 μM ATP, 1 mM MnCl2; rounded to 1 significant figure
T3 construct: purchased Cell Signaling Technology
T3 sequence (P35968 20-1356): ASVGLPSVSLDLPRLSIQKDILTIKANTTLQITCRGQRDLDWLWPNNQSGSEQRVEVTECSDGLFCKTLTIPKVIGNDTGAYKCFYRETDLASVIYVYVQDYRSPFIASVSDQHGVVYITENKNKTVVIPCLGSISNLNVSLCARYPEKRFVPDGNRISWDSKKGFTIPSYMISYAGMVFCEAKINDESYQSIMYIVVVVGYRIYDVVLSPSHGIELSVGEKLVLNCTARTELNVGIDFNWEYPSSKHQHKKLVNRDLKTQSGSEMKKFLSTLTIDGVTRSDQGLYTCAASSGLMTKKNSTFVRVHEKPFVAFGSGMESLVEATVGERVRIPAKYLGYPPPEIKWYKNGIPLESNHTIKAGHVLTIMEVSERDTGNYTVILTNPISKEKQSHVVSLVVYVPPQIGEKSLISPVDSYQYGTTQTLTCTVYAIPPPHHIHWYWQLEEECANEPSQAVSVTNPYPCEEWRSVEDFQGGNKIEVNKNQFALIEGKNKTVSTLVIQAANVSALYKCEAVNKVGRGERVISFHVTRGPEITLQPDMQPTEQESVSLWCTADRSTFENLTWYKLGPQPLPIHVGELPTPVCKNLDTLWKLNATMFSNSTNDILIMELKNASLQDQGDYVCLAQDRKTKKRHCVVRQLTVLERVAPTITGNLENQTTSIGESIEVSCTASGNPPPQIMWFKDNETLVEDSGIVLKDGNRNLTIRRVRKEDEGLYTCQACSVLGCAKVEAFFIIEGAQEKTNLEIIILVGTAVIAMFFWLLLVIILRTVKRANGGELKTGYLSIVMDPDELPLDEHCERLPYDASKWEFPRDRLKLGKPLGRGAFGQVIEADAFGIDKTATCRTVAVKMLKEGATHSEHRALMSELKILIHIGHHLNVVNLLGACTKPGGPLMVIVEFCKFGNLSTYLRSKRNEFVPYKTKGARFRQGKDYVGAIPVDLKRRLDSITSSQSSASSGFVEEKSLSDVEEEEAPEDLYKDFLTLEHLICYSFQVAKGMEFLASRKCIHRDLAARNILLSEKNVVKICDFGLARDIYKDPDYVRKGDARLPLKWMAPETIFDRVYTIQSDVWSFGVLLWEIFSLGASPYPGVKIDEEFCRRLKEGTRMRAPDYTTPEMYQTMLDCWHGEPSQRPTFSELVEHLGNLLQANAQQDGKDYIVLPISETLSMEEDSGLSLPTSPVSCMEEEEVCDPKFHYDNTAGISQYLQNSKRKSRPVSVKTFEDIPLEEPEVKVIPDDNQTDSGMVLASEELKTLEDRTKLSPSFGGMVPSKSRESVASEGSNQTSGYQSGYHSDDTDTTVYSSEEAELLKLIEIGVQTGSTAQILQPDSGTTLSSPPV
From the text: as §1
This assay was performed as for the Aurora A kinase assay, using VEGFR2 kinase, CSKtide as the substrate with 6 μM ATP and 1 mM MnCl2, a kinase reaction time of 1 hr, and dilution of the binding reagent 1:1200 in binding buffer A/binding buffer B (1:1).

[2] = test system: HCT116 (human colon carcinoma) cells; assay: HCT116 cytotoxicity assay (CellTiter-Glo); assay type: cell-based; details: HCT-116, 72 h, cytotoxicity, three days culture, read-out: HCT116 IC50
From the text: as §1
Log-phase cells were trypsinized, collected by centrifugation, and resuspended in a small volume of fresh medium, and the density of viable cells was determined following Trypan Blue staining. Cells were diluted in fresh media (1×10^4 cells/mL for HL60 and 4×10^4 cells/mL for HCT116 cells), the test compounds (concentrations between 0.1 μM and 200 μM, dissolved in DMSO, 50 μL) added immediately after dilution to achieve a final DMSO concentration of 0.5%, then the suspensions added at 150 μL/well to 96-well plates, and incubated overnight to allow attachment in the case of adherent cells. The cells were cultured for three days (about three doubling times). The cells were then collected by centrifugation, and 100 μL of the culture supernatant was replaced by the CellTiter-Glo reagent. After incubation for 15 minutes at room temperature, the plate was read with a luminometer.

p-H3 in HCT116 cells = assay: Histone phosphorylation (p-H3) assay; assay type: cell-based; details: Homo sapiens, HCT-116; HCT116 cells, 4 hr incubation; read-out: p-H3 IC50
From the text: as §1
Log phase HCT116 cells were seeded at 2.5×10^4 cells/well in a 96-well plate and allowed to attach overnight. The test compounds were diluted in DMSO (8 concentrations with serial 3-fold dilutions) and added to the cells (0.5% DMSO final concentration), and the cells incubated for 4 hr. The cells were then washed three times with cold phosphate-buffered saline (PBS), and lysis buffer was added. After 30 min shaking at 4° C. and centrifugation, the supernatants were transferred to a nitrocellulose membrane by a “dot-blot” apparatus. After washing the wells, the membrane was processed for Western blot. Detection of p-H3 and β-actin was performed on the same membrane with primary rabbit anti-p-H3 and mouse anti-β-actin antibodies followed by secondary goat anti-rabbit IRDye800 and goat anti-mouse AlexaFluor 680 antibodies. The membranes were scanned on an Odyssey scanner.

NC(=O)/C(=C1\Nc2ccc(C(=O)N3CC[C@@H](N)C3)cc2S1)c1nccc(C(F)(F)F)n1 [Compound 69A]
pIC50 (Aurora A kinase): 7.70 | pIC50 (Aurora B kinase): 7.52 | pIC50 [1]: 7.70 | pIC50 (VEGFR2 kinase): 8.70 | pIC50 [2]: 7.05 | pIC50 (p-H3 in HCT116 cells): 7.00

CN1CCN(S(=O)(=O)c2ccc3c(c2)S/C(=C(/C(N)=O)c2nccc(C(F)(F)F)n2)N3)CC1 [Compound 126A]
pIC50 (Aurora A kinase): 7.70 | pIC50 (Aurora B kinase): 7.70 | pIC50 [1]: 7.52 | pIC50 (VEGFR2 kinase): 7.15 | pIC50 [2]: 5.70 | pIC50 (p-H3 in HCT116 cells): 5.70

CN1CCN(C(=O)c2ccc3c(c2)S/C(=C(/C(N)=O)c2nccc(C(F)(F)F)n2)N3)CC1 [Compound 59A]
pIC50 (Aurora A kinase): 8.10 | pIC50 (Aurora B kinase): 7.70 | pIC50 [1]: 7.30 | pIC50 (VEGFR2 kinase): 8.22 | pIC50 [2]: 6.40 | pIC50 (p-H3 in HCT116 cells): 7.05

CCN1CCN(CCCNC(=O)c2ccc3c(c2)N/C(=C(/C(N)=O)c2nccc(C(F)(F)F)n2)N3)CC1 [Compound 55A]
pIC50 (Aurora A kinase): 7.70 | pIC50 (Aurora B kinase): 7.70 | pIC50 [1]: 7.30 | pIC50 (VEGFR2 kinase): 7.70 | pIC50 [2]: 6.52 | pIC50 (p-H3 in HCT116 cells): 6.15

NC(=O)/C(=C1\Nc2ccc(NC(=O)[C@@H]3CCCN3)cc2N1)c1nccc(C(F)(F)F)n1 [Compound 80A]
pIC50 (Aurora A kinase): 8.00 | pIC50 (Aurora B kinase): 8.40 | pIC50 [1]: 7.00 | pIC50 (VEGFR2 kinase): 7.30 | pIC50 [2]: 6.30 | pIC50 (p-H3 in HCT116 cells): 7.05

NC(=O)/C(=C1\Nc2ccc(C(=O)Nc3ccc(CN4CCOCC4)cc3)cc2N1)c1nccc(C(F)(F)F)n1 [Compound 72A]
pIC50 (Aurora A kinase): 7.70 | pIC50 (Aurora B kinase): 7.70 | pIC50 [1]: 7.10 | pIC50 (VEGFR2 kinase): 7.70 | pIC50 [2]: 6.70 | pIC50 (p-H3 in HCT116 cells): 6.52

CN1CCN(c2ccc3c(c2)S/C(=C(/C(N)=O)c2nccc(C(F)(F)F)n2)N3)CC1 [Compound 120A]
pIC50 (Aurora A kinase): 7.52 | pIC50 (Aurora B kinase): 8.05 | pIC50 [1]: 5.70 | pIC50 (VEGFR2 kinase): 8.70 | pIC50 [2]: 5.70 | pIC50 (p-H3 in HCT116 cells): 6.30

COc1ccnc(/C(C(N)=O)=C2/Nc3ccc(CN4CCOCC4)cc3S2)n1 [Compound 92A]
pIC50 (Aurora A kinase): 7.15 | pIC50 (Aurora B kinase): 7.52 | pIC50 [1]: 7.22 | pIC50 (VEGFR2 kinase): 6.40 | pIC50 [2]: 5.30 | pIC50 (p-H3 in HCT116 cells): 6.30

NC(=O)/C(=C1\Nc2ccc(N3CCC(N4CCOCC4)CC3)cc2S1)c1nccc(C(F)(F)F)n1 [Compound 122A]
pIC50 (Aurora A kinase): 7.70 | pIC50 (Aurora B kinase): 8.05 | pIC50 [1]: 5.15 | pIC50 (VEGFR2 kinase): 7.70 | pIC50 [2]: 5.40 | pIC50 (p-H3 in HCT116 cells): 6.40

CN1CCN(C(=O)c2ccc3c(c2)N/C(=C(/C(N)=O)c2nccc(C(F)(F)F)n2)N3)CC1 [Compound 58A]
pIC50 (Aurora A kinase): 8.05 | pIC50 (Aurora B kinase): 8.30 | pIC50 [1]: 7.22 | pIC50 (VEGFR2 kinase): 8.05 | pIC50 [2]: 6.40 | pIC50 (p-H3 in HCT116 cells): 6.30

NC(=O)/C(=C1\Nc2ccc(NCCN3CCOCC3)cc2S1)c1nccc(C(F)(F)F)n1 [Compound 124A]
pIC50 (Aurora A kinase): 7.52 | pIC50 (Aurora B kinase): 7.52 | pIC50 [1]: 5.52 | pIC50 (VEGFR2 kinase): 7.00 | pIC50 [2]: < 4.70
